Assay results published in US20200239587A1, “SENSITIZATION OF TUMORS TO THERAPIES THROUGH ENDOGLIN ANTAGONISM” (Cedars-Sinai Medical Center, priority 2016, published 2020).
Entries after “also recorded” stand apart in the source; their conditions may differ.

Key:
[1] = test system: CD105 cell surface expression in human CW22Rv1 epithelia and mouse prostatic fibroblasts; test: 3D co-culture, CD105 cell surface expression by FACS; assay type: cell-based; details: enzalutamide vs vehicle; epithelial and fibroblastic populations
Procedure: After 72 hours, the cells were dissociated and assessed by FACS for CD105 expression as shown.
A modified version of the 3D organotypic co-culture system was performed in a collagen matrix similar to that previously reported (Stark et al., 1999, J Invest Dermatol 112, 681-691). Collagen matrix gels were prepared by mixing five volumes of rat tail collagen I with two volumes of matrigel (NCI), one volume of 10× DMEM medium (GE Healthcare Life Sciences), and one volume of FBS (Atlanta Biologicals), Rv1 and primary mouse prostatic fibroblasts were combined in a 1:3 ratio. Nylon squares were coated with collagen and placed on metal grids in a 6-well plate. Gel plugs (150 μl) were transferred onto the nylon squares and media was added to the level of the nylon mesh. After 72 hours, the cells were dissociated from the matrix with collagenase and dispersed for FACS analysis.
FACS experiments were performed with eBiosciences antibodies: anti-human Stro-1-FITC (340105), anti-human CD90-PE (12-0909-42), anti-human CD105-APC (17-1057-41), anti-mouse CD105-APC (17-1051-82), anti-human CD117-PE-Cy7 (15-1178-41), anti-human Ki67-PECy7 (25-5699-41), and anti-human EpCAM-PE (12-9326-41). All events were acquired on a BD LSRII flow cytometer in the Cedars-Sinai Medical Center FACS core installed with BD FACSDiva software. Files were analyzed using FlowJo software v10.2. […]

[2] = test system: PCa patient-derived xenograft (PDX); test: PCa patient-derived xenograft (PDX), immune-localization of CD105 and SFRP1; assay type: in vivo, mice
Description: See also FIG. 15. […] Scale bar represents 100 μm. […] See also FIG. 16.

C42B = test: MTT proliferation assay; assay type: cell-based, human; details: enzalutamide alone, absence of fibroblastic cells; p<0.0001
Procedure: (§1) CW22Rv1, C42B, and PC3 cells from ATCC were expanded as directed. Prostatectomy specimens from Cedars-Sinai Medical Center or the Greater Los Angeles Veterans Affairs were cultured to generate NAF and CAF cells using the same method, as C57BL/6 mouse wild-type prostatic fibroblasts were grown as previously reported (Franco et al., 2011, Cancer research 71, 1272-1281; Kiskowski et al., 2011, Cancer research 68, 4709-4718). TRC105 and M1043 were provided by TRACON Pharmaceuticals, Inc. (San Diego, Calif.). Enzalutamide (Xtandi) was purchased from Medivation (San Francisco, Calif.).
(§2) 3000 cells per 96-well were treated for 72 hours using 5 wells per treatment. MTT reagent (M6494, Life Technologies) was prepared as directed, incubated for one hour at 37° C., and analyzed using manufacturer's recommendations.

PC3 cells = test: MTT proliferation assay; assay type: cell-based, human; details: enzalutamide, absence of TRC105; no androgen receptor expression
Procedure: as §1, §2

Rv1 = test: MTT proliferation assay; assay type: cell-based, human; details: enzalutamide alone, absence of fibroblastic cells; p<0.0001
Procedure: as §1, §2

[3] = test system: tissue recombination orthotopic xenografts of primary human CAF and Rv1; test: Tissue recombination orthotopic xenografts of primary human CAF and Rv1; details: castrated mice given enzalutamide vs control intact mice
Description: FIG. 13A) Mice were orthotopically grafted with tissue recombinants of CW22Rv1 and CAF. […] FIG. 13B) H&E staining was followed by immune-localization for phosphorylated-histoneH3 (PH-H3), TUNEL, and chromogranin A (ChromA). Scale bar represents 32 μm. The mitotic (PH-H3) and cell death (TUNEL) indexes were plotted. n>5, error bars are mean+/−SD and *p<0.05, **p<0.01, ***p<0.001, compared to control unless otherwise indicated.
Male beige/SCID mice (Envigo), 6-8 or 10-12 weeks old, were used for subrenal capsule or prostatic orthotopic grafting, respectively, as previously described (Banerjee et al., 2014, Oncogene 33, 4924-4931; Hayward et al., 2001, Cancer Res 61, 8135-8142). In accordance with institutional animal care and use committee approval, 2×10^5 CW22Rv1 cells and 6×10^5 stromal cells were suspended in 20 μL type I collagen to be grafted into the subrenal capsule of mice castrated after seven days and sacrificed 21 days after castration. […] Tumor volume was calculated using the modified ellipsoid formula volume3=π/6×(width)2×length.
Paraffin embedded tissues were sectioned (5 μm thick) were subjected to hematoxylin and eosin (H&E) staining and immunohistochemistry as previously reported (Placencio et al., 2008, Cancer research 68, 4709-4718). […] Anti-phosphorylated histone H3 (06-570, Millipore), anti-CD105 (NCL-CD105, Leica Microsystems), anti-Ki67 (ab16667, Abcam), and anti-chromogranin A (sc-13090, Santa Cruz Biotechnology), anti-SFRP1 (601-401-475S, Rockland Immunochemicals), and anti-survivin (2808, Cell Signaling) antibodies were incubated at 4° C. overnight. Secondary antibody development was performed with Dako Cytomation mouse or rabbit kits and visualized using 3,3′-diaminobenzidine tetrahydrochloride substrate. TUNEL staining was performed per manufacturer's protocol (S7100, Millipore). Slides were scanned with a Leica Biosystems Aperio AT. Up to five fields per tissue were quantitated with Fiji (ImageJ) using a custom written macro. Mitotic and death index were quantitated by taking the total number of positively-stained nuclei divided by the total number of nuclei.

p53 in 22Rv1 cells = test: p53 status after irradiation; assay type: cell-based, human
Procedure: In search for an alternate process mediating TRC105 radiation sensitization the inventors examined changes in cell cycle. The impact of radiation on the cell cycle is well described, as causing a G2 cell cycle arrest that undergoes cell cycle redistribution. […] As SIRT1 has previously been reported to regulate p53 stability by de-acetylating p53, the inventors investigated p53 status with TRC105 treatment. 22Rv1 cells were treated with either TRC105 or 200 μM nicotinamide, an inhibitor of SIRT1 activity, prior to irradiation (4Gy). Cells were then collected at 0, 1, and 7 days post radiation to elucidate early and late p53 response. […] While loss-of-function p53 mutations are rare in prostate cancer, 90% of pancreatic cancers have p53 mutations. We therefore used two p53 mutant pancreatic cancer cell lines: HPAF-II and MIAPACA-2 to identify if TRC105 unresponsiveness to radiation was due to p53 loss of functionality.

22Rv1 cells [4] = test: Total cellular ATP; assay type: cell-based, human; details: with or without 4 Gy, 0-168 hours
Procedure: Cells were analyzed for mito-stress test by Seahorse-XF 168 hours following 4 Gy of radiation in the presence of IgG or TRC105. FIG. 26A) Basal respiration, non-mito respiration, proton leak, spare respiratory capacity, FIG. 26B) extracellular acidification rate (ECAR) and FIG. 26C) mitochondrial dependent ATP production were quantitated using Wave 2.3.0 analysis. Data are reported as mean+/−S.D. of a representative experiment (n=5) of 3 independent experiments. FIGS. 26A-26C, the first/left column depicts 0Gy+IgG, the second column depicts 0Gy+TRC105, the third column depicts 4Gy+IgG and the last/right column depicts 4Gy+TRC105. FIG. 26D) 22Rv1 cells treated with IgG, TRC105 or nicotinamide were irradiated (4 Gy). Total cellular ATP was measured 0, 24, 72, 120, and 168 hours post radiation. Within each group, the left column is IgG, middle column is TRC105 and the right column is nicotinamide. Data are reported as mean+/−S.D. of 3 independent experiments. (***p<0.001, ****p<0.0001).

22Rv1 cells [5] = test: Cell counts with oligomycin and irradiation; assay type: cell-based, human; details: irrespective of dose of oligomycin, 72 hrs; p<0.01
Procedure: 22Rv1 cells were treated with indicated doses of ATPase inhibitor, oligomycin and exposed to 4Gy irradiation. Within each group, the left column is 0 Gy and the right column is 4 Gy. Cell counts were performed 72 hrs. following irradiation. (**p<0.01, ***p<0.001)

Rv1 cells [6] = test: Neuroendocrine gene panel in Rv1 treated with recombinant SFRP1; assay type: cell-based, human; details: 0, 0.01, 0.1, 1 μg/ml SFRP1; p<0.002
Description: See also FIG. 15. […] Immunohistochemical localization of CD105 and SFRP1 in benign or PCa tissues are found in blood vessels (v), epithelia (e), and stroma (s), n=4. Scale bar represents 100 μm. FIG. 12E) Epithelial proliferation of human CW22Rv1, in 3D co-cultures with mouse prostatic fibroblasts, were co-stained for EpCam and Ki67 for FACS analysis. […] See also FIG. 16. […] Error bars are mean+/−SD and **p<0.01, ****p<0.0001, compared to control unless otherwise indicated.
Total RNA was extracted using the RNeasy kit (Qiagen). 1 μg RNA was used for cDNA synthesis using iSCRIPT cDNA synthesis kit (1708891, Bio-Rad). Quantitative RT-PCR was performed with 5 replicates using the Step One Real-Time PCR system (Applied Biosystems). Gene mRNA expression was normalized to GAPDH. Primer sequences can be found in the Table 1. For RNA-sequencing, Ion Proton AmpliSeq Transcriptome RNA Sequencing was performed achieving an average of 3M reads. We mapped an average of 88% of the reads to the human genome with Torrent Suite version 4.4.2.

Rv1 cells [7] = test: Rv1 proliferation with recombinant SFRP1; assay type: cell-based, human; details: same doses of SFRP1, 72 hours
Description: Associations between copy number (CN), gene expression (GE), and methylation (Me) are denoted by lines from one node to another (p<0.01).

[8] = test system: SIRT1 protein expression in 22Rv1; test: Western blot for SIRT1 after BMP treatment; assay type: cell-based, human; details: serum-starved, 50 ng/ml BMP4 for 4 hours
Procedure: FIG. 20A) Western blot for SIRT1 expression measured in 22Rv1 cells following serum starvation and treatment with 50 ng/ml BMP4 for 4 hours. Phosphorylated Smad1/5 and β-actin was measured concurrently. FIG. 20B) SIRT1 mRNA expression was measured in CW22Rv1 under serum free conditions with 50 ng/ml BMP4, IgG in the context of increasing doses of TRC105 (0.05, 0.1, 0.5, 1, 5, or 10 μg/ml). SIRT1 mRNA expression was normalized to GAPDH and to serum treated control. FIG. 20C) Fold Change of SIRT1 mRNA in benign prostate and prostate cancer patients, obtained from R2-Genomics analysis is expressed (n=95). FIG. 20D) Immunohistochemical localization for SIRT1 expression in benign and prostate cancer tissues is indicated by arrows (Human Protein Atlas). The “e” and “s” indicate epithelia and stromal compartments in the tissues, respectively. FIG. 20E) SIRT1 mRNA expression was measured 72 hours following irradiation of 22Rv1 in a dose range of 0-6 Gy. FIG. 20F) SIRT1 mRNA expression was measured in a time course 0-72 hours following 4 Gy irradiation. SIRT1 mRNA expression was normalized to GAPDH and to untreated, 0 Gy. Data are reported as a mean+/−S.D. of 3 independent experiments (***p<0.001, ****p<0.0001).

CNC(=O)c1ccc(N2C(=S)N(c3ccc(C#N)c(C(F)(F)F)c3)C(=O)C2(C)C)cc1F [enzalutamide, reference compound]
CD105 cell surface expression [1]: three-fold increase
SFRP1 expression in PDX ([2]; enzalutamide treatment): upregulated
CD105 expression in PDX tissues ([2]; following 4 days of enzalutamide administration): elevated in both epithelial and CAF populations
cell proliferation (MTT) (C42B): significantly reduced cell proliferation
viability (MTT) (PC3 cells): insensitive
cell proliferation (MTT) (Rv1): significantly reduced cell proliferation; also recorded: sensitive to enzalutamide treatment
cell turnover by phosphorylated-histone H3 and TUNEL [3]: statistically comparable to control intact mice
tumor volume [3]: statistically comparable to control intact mice; also recorded: did not significantly decrease tumor growth

NC(=O)c1cccnc1 [nicotinamide, reference compound]
acetylated and total-p53 (p53 in 22Rv1 cells; by 7 days post radiation): markedly increased
anti-apoptotic protein Bc1-2 (p53 in 22Rv1 cells; prior to 4Gy irradiation): decrease in the anti-apoptotic protein Bc1-2
p21 (p53 in 22Rv1 cells; prior to 4Gy irradiation): increase in p21
acetylated p53 (p53 in 22Rv1 cells; treatment prior to 4Gy, nicotinamide 200 μM): increase in acetylated p53
cellular ATP stores (22Rv1 cells [4]): depleted regardless of radiation treatment

CC[C@H]1/C=C/C=C/C[C@@H](C)[C@H](O)[C@@](C)(O)C(=O)[C@@H](C)[C@H](O)[C@@H](C)C(=O)[C@@H](C)[C@H](O)[C@@H](C)/C=C/C(=O)O[C@@H]2[C@H](C)[C@H](CC1)O[C@]1(CC[C@H](C)[C@H](C[C@@H](C)O)O1)[C@H]2C [oligomycin]
cell proliferation by cell counting (22Rv1 cells [5]): significantly reduced cell proliferation

B1: SFRP1: human recombinant SFRP1 (Secreted Frizzled Related Protein 1) (protein, UniProt Q8N474 32-314, looked up)
Secreted frizzled-related …: SEYDYVSFQSDIGPYQSGRFYTKPPQCVDIPADLRLCHNVGYKKMVLPNLLEHETMAEVKQQASSWVPLLNKNCHAGTQVFLCSLFAPVCLDRPIYPCRWLCEAVRDSCEPVMQFFGFYWPEMLKCDKFPEGDVCIAMTPPNATEASKPQGTTVCPPCDNELKSEAIIEHLCASEFALRMKIKEVKKENGDKKIVPKKKKPLKLGPIKKKDLKKLVLYLKNGADCPCHQLDNLSHHFLIMGRKVKSQYLLTAIHKWDKKNKEFKNFMKKMKNHECPTFQSVFK
expression of panel of 9 PCa NED genes (Rv1 cells [6]): significant induction of a panel of 9 PCa NED genes in a dose dependent manner
epithelial proliferation (Rv1 cells [7]): no effect

B2: BMP: bone morphogenic protein (BMP4, 50 ng/ml) used to stimulate 22Rv1 cells (protein, UniProt P12644 293-408, looked up)
Bone morphogenetic protein 4: SPKHHSQRARKKNKNCRRHSLYVDFSDVGWNDWIVAPPGYQAFYCHGDCPFPLADHLNSTNHAIVQTLVNSVNSSIPKACCVPTELSAISMLYLDEYDKVVLKNYQEMVVEGCGCR
SIRT1 protein expression [8]: induced SIRT1 protein expression
